US20060264623A1, “DNA-PK inhibitors” (KuDOS Pharmaceuticals Limited, priority 2005, published 2006)
Like-named read-outs stand apart in the source and are kept apart here.

Key:
[1] = biological target: PI 3-kinase; settings: stated to be the same as for DNA-PK; cited from earlier work
[2] = test system: cells; settings: cited from earlier work
[3] = biological target: T1, DNA-PK (Homo sapiens, UniProt P78527); settings: in vitro; read-out: IC50 towards DNA-PK; cited from earlier work
[4] = test system: HeLa cells; assay: Survival Enhancement Ratio, clonogenic survival assay after 2 Gray irradiation; format: cell-based; settings: inhibitor 500 nM
Experimental: The Survival Enhancement Ratio (SER) is a ratio of the enhancement of cell kill elicited by the DNA-PK inhibitor after 2 Grays of irradiation compared to unirradiated control cells. DNA-PK inhibitors were used at a fixed concentration of 500 nM. Radiation was delivered by a Faxitron 43855D machine at a dose rate of 1 Gy pre minute The SER at 2 Gray irradiation was calculated from the formula: [formula]
The degree of cell killing was monitored by a standard clonogenic survival assay. Briefly, tissue culture treated 6-well plates were seeded with HeLa cells at an appropriate concentration to give 100-200 colonies per well and returned to the incubator in order to allow the cells to attach. Four hours later, compound or vehicle control was added to the cells. The cells were then incubated for 1 hour in the presence of inhibitor prior to irradiation at 2 Gray using a Faxitron 43855D cabinet X-ray machine. The cells were then incubated for a further 16 hours before the media was replaced with fresh media in the absence of DNA-PK inhibitor. After 8 days, colonies formed were fixed and stained with Giemsa (Sigma, Poole, UK) and scored using an automated colony counter (Oxford Optronics Ltd, Oxford, UK). The data was calculated as described above.

[5] = biological target: T1, DNA-PK; assay: DNA-PK inhibition assay (ELISA, p53 serine 15 phosphorylation of GST-p53N66); format: biochemical, Mammalian (HeLa cell nuclear extract)
Experimental: In order to assess the inhibitory action of the compounds against DNA-PK in vitro, the following assay was used to determine IC50 values.
DNA-PK (250 ng) activity was measured at 30° C., in a final volume of 40 μl, in buffer containing 25 mM Hepes, pH7.4, 12.5 mM MgCl2, 50 mM KCl, 1 mM DTT, 10% Glycerol, 0.1% NP-40 and […] of the substrate GST-p53N66 (the amino terminal 66 amino acid resiudes of human wild type p53 fused to glutathione S-transferase) in polypropylene 96 well plates. To the assay mix, varying concentrations of inhibitor (in DMSO at a final concentration of 1%) were added. After 10 minutes of incubation, ATP was added to give a final concentration of 50 μM along with a 30mer double stranded DNA oligonucleotide (final concentraion of 0.5 ng/ml) to initiate the reaction. After 1 hour with shaking, 150 μl of phosphate buffered saline (PBS) was added to the reaction and 5 μl then transferred to a 96 well opaque white plate containing 45 μl of PBS per well where the GSTp53N66 substrate was allowed to bind to the wells for 1 hour. […] An anti-rabbit HRP conjugated secondary antibody (Pierce) was then employed in the ELISA before the addition of chemiluminescence reagent (NEN Renaissance) to detect the signal as measured by chemiluminescent counting via a TopCount NXT (Packard).
The enzyme activity for each compound is then calculated using the following equation: [formula] […]

Compound | IC50 [1] [nM] | sensitisation of cells to the effects of IR [2] | IC50 [3] [nM] | SER (Survival Enhancement Ratio) [4] | IC50 [5] [nM]
O=c1cc(N2CCOCC2)oc2c(-c3ccccc3)cccc12 [LY294002] | ~1000 | weakly sensitise | ~1000 | – | –
O=c1cc(N2CCOCC2)oc2c(-c3cccc(-c4ccccc4)c3)cccc12 | – | – | – | 1.5 | 760
